The subject of test [1] is MCF-7 (HER2 negative to normal). The test is described as follows: Cytotoxicity of anti-HER2 ADCs, SRB assay. Format: cell-based, human. Conditions: Table 12, hybrid ADCs. How it is done:
(§1) Commercially available human breast cancer cell lines MCF-7 (HER2 negative to normal), OE-19 (HER2 positive), NCI-N87 (HER2 positive), SK-OV-3 (HER2 positive), JIMT-1 (HER2 positive), and SK-BR-3 (HER2 positive) were used. The cell lines were cultured according to recommended specifications provided with the commercially available cell lines.
(§2) Anti-proliferation activities of the antibodies, drugs, and conjugates with regard to the cancer cell lines were measured. The cells were plated in 96-well, tissue culture plates at 1×10^4 cells per well. After 24 hour incubation, the antibodies, drugs, and conjugates were added in various concentrations. The number of viable cells after 72 hours were counted using SRB assay. Absorbance was measured at 540 nm using SpectraMax 190 (Molecular Devices, USA).
On the technique in general: In SRB staining, fixed cells bind dye roughly in proportion to their protein.

The next test has as its system NCI-N87 (HER2 positive). The test is described as follows: Cytotoxicity of anti-HER2 ADCs, SRB assay. It counts as cell-based, human. Conditions: Table 12, hybrid ADCs. How it is done:
as §1, §2

A further test deals with SK-OV-3 (HER2 positive). The test is described as follows: Cytotoxicity of anti-HER2 ADCs, SRB assay. It counts as cell-based, human. Conditions: Table 12, hybrid ADCs. How it is done: as §1, §2
Test [2] has as its system A431 cells, which express high levels of EGFR. The test is described as follows: Cytotoxicity of Erbitux based ADCs, SRB. Conditions: 72 hours; read-out: IC50 against A431 cells. It counts as cell-based. How it is done:
(§3) A431 cells, which express high levels of EGFR, and MCF-7 cells, which express low levels of EGFR, were plated at about 1000 cells per well in a 96-well plate in 100 μL of media. HCC-827 cells, which express an intermediate level of EGFR were plated at about 5000 cells per well in a 96-well plate in 100 μL of media. […] The cells were incubated for 72 hours and then fixed for 1 hour at 4° C. after adding 100 μL of ice-cold 10% trichloroacetic acid to each well.

Test [3] relates to HCC-827 cells, which express an intermediate level of EGFR. The test can be described thus: Cytotoxicity of Erbitux based ADCs, SRB. It counts as cell-based. Conditions: 72 hours; read-out: IC50 against HCC-827 cells. How it is done:
as §3

For test [4], the system named is MCF-7 cells, which express low levels of EGFR. The test is described as follows: Cytotoxicity of Erbitux based ADCs, SRB. Format: cell-based. Conditions: 72 hours; read-out: IC50 against MCF-7 cells. How it is done:
as §3

In the next test the test system is SK-BR3 cells. The test can be described thus: Plasma stability of ADCs: human plasma incubation, then SRB cytotoxicity test. Format: cell-based. Conditions: Table 18; human plasma 0 h; SK-BR3 cells 72 hr; read-out: Plasma stability of Herceptin based ADCs (nM), Plasma incubation time 0 h.

Square brackets hold non-standard residues; d marks the D form. Peptide text beside a SMILES is read from it. Dolaproine = CO[C@@H]([C@@H]1CCCN1)[C@@H](C)C(=O)O; Dil = CC[C@H](C)[C@H](NC)[C@@H](CC(=O)O)OC; NMeV = CN[C@H](C(=O)O)C(C)C

For the compound `CC[C@H](C)[C@@H]([C@@H](CC(=O)N1CCC[C@H]1[C@H](OC)[C@@H](C)C(=O)N[C@@H](Cc1ccccc1)C(=O)OC)OC)N(C)C(=O)[C@@H](NC(=O)[C@@H](NC)C(C)C)C(C)C` [MMAF-OMe, monomethyl auristatin F methyl ester] (H-[NMeV]V[Dil][Dolaproine]F-OMe), the IC50 was 0.6 nM in test [1]; 0.49 nM in the test with NCI-N87 (HER2 positive); 0.78 nM with SK-OV-3 (HER2 positive); 1.11 nM in test [2]; 1.99 nM in test [3]; 1.81 nM in test [4]. In addition, the IC50 in the test on SK-BR3 cells turned out to be 0.48 nM.

Source of the values: US11167040B2, “Conjugates comprising peptide groups and methods related thereto” (priority 2015, dated 2021).
